Data published in US20170298052A1, “SUBSTITUTED OXOPYRIDINE DERIVATIVES” (BAYER PHARMA AKTIENGESELLSCHAFT, priority 2014, published 2017).

What was measured:
[1] = target: T1, human factor XIa (Homo sapiens, UniProt P03951); experiment: Measurement of FXIa inhibition (fluorogenic peptide substrate, AMC cleavage); assay type: biochemical; conditions: factor XIa from Kordia 0.45 nM; substrate Boc-Glu(OBzl)-Ala-Arg-AMC; 30 min at 22° C.
T1 construct: purchased Kordia
Description: (§1) The factor XIa inhibition of the substances according to the invention is determined using a biochemical test system which utilizes the reaction of a peptidic factor XIa substrate to determine the enzymatic activity of human factor XIa. Here, factor XIa cleaves from the peptic factor XIa substrate the C-terminal aminomethylcoumarin (AMC), the fluorescence of which is measured. The determinations are carried out in microtitre plates.
1 μl of the diluted substance solutions is placed into each of the wells of white microtitre plates from Greiner (384 wells). […] After 15 min of incubation, the enzyme reaction is started by addition of 20 μl of the factor XIa substrate Boc-Glu(OBzl)-Ala-Arg-AMC dissolved in assay buffer (10 μM in assay buffer) from Bachem, the mixture is incubated at room temperature (22° C.) for 30 min and fluorescence is then measured (excitation: 360 nm, emission: 460 nm). The measured emissions of the test batches with test substance are compared to those of control batches without test substance (only dimethyl sulphoxide instead of test substance in dimethyl sulphoxide), and IC50 values are calculated from the concentration/activity relationships.

[2] = target: human plasma kallikrein (Homo sapiens, UniProt P03952); experiment: Determination of the plasma kallikrein activity (fluorogenic peptide substrate, AMC cleavage); assay type: biochemical; conditions: plasma kallikrein from Kordia 0.6 nM; substrate H-Pro-Phe-Arg-AMC; 30 min at 22° C.; read-out: IC50 [nM] (Table B, plasma kallikrein inhibition)
Description: as §1, with “To determine the plasma kallikrein” for “The factor XIa”, “invention,” for “invention is determined using”, “system is used” for “system”, “plasma kallikrein” for “factor XIa”, “plasma kallikrein.” for “factor XIa.”
Test substances are dissolved in dimethyl sulphoxide and serially diluted in dimethyl sulphoxide (3000 μM to 0.0078 μM; resulting final concentrations in the test: 50 μM to 0.00013 μM). 1 μl of the diluted substance solutions is placed into each of the wells of white microtitre plates from Greiner (384 wells). 20 μl of assay buffer (50 mM Tris/HCl pH 7.4; 100 mM sodium chloride solution; 5 mM of calcium chloride solution; 0.1% of bovine serum albumin) and 20 μl of plasma kallikrein from Kordia (0.6 nM in assay buffer) are then added successively. After 15 min of incubation, the enzyme reaction is started by addition of 20 μl of the substrate H-Pro-Phe-Arg-AMC dissolved in assay buffer (10 μM in assay buffer) from Bachem, the mixture is incubated at room temperature (22° C.) for 30 min and fluorescence is then measured (excitation: 360 nm, emission: 460 nm). The measured emissions of the test batches with test substance are compared to those of control batches without test substance (only dimethyl sulphoxide instead of test substance in dimethyl sulphoxide), and IC50 values are calculated from the concentration/activity relationships.

Chain of human plasma kallikrein (P03952 391-638 limits assumed): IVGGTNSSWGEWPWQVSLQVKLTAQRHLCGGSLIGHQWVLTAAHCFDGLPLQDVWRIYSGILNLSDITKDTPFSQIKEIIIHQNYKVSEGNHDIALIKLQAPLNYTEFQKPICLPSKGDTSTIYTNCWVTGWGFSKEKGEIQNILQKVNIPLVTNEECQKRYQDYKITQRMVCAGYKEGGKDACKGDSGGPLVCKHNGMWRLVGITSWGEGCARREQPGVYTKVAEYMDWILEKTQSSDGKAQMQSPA
Chain of human plasma kallikrein (P03952 20-390 partner limits assumed): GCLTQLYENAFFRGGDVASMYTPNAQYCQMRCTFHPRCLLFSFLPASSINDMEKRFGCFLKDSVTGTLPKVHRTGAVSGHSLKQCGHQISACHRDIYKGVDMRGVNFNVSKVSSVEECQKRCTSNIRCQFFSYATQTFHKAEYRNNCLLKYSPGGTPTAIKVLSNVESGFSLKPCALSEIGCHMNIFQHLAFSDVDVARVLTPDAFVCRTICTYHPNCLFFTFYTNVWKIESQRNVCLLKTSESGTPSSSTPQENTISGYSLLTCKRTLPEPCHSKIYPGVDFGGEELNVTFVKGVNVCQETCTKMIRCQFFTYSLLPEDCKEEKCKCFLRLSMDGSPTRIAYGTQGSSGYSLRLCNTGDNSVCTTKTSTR
T1 sequence (P03951 388-625 limits assumed): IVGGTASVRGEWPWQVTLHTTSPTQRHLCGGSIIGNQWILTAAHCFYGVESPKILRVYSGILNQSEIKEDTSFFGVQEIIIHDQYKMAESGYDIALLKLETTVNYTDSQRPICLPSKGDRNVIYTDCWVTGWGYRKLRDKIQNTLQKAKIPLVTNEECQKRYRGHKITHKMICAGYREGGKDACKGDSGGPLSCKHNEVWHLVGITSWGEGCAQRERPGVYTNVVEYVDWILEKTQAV
T1 sequence (P03951 19-387 partner limits assumed): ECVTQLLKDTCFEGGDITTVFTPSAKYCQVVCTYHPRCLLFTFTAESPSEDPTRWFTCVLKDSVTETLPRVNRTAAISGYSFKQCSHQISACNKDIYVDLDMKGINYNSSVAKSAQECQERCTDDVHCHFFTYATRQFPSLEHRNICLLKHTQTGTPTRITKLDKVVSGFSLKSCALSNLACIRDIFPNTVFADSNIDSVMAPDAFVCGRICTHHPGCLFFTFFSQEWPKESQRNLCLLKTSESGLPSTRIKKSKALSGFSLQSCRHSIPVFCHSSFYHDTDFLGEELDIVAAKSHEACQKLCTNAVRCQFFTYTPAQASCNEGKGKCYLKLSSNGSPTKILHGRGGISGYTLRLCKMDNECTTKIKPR

Compound | IC50 [1] [nM] | IC50 [2] [nM]
CCOCCC(C(=O)Nc1ccc(C(N)=O)c(F)c1)n1cc(OC)c(-c2cc(Cl)ccc2C#N)cc1=O (racemic) [Example 18, 4-({2-[4-(5-Chloro-2-cyanophenyl)-5-methoxy-2-oxopyridin-1(2H)-yl]-4-ethoxybutanoyl}amino)-2-fluorobenzamide] | 14 | 11
COc1cn(C(CCOC(C)C)C(=O)Nc2ccc(C(N)=O)c(F)c2)c(=O)cc1-c1cc(Cl)ccc1C#N (racemic) [Example 19, 4-({2-[4-(5-Chloro-2-cyanophenyl)-5-methoxy-2-oxopyridin-1(2H)-yl]-4-isopropoxybutanoyl}amino)-2-fluorobenzamide] | 12.5 | 7.4
COc1cn(C(CCOC2CCC2)C(=O)Nc2ccc(C(N)=O)c(F)c2)c(=O)cc1-c1cc(Cl)ccc1C#N (racemic) [Example 20, 4-({2-[4-(5-Chloro-2-cyanophenyl)-5-methoxy-2-oxopyridin-1(2H)-yl]-4-(cyclobutyloxy)-butanoyl}amino)-2-fluorobenzamide] | 7.4 | 6.1
COc1cn(C(CCOC(C)(C)C)C(=O)Nc2ccc(C(N)=O)c(F)c2)c(=O)cc1-c1cc(Cl)ccc1C#N (racemic) [Example 21, 4-({4-tert-Butoxy-2-[4-(5-chloro-2-cyanophenyl)-5-methoxy-2-oxopyridin-1(2H)-yl]butanoyl}amino)-2-fluorobenzamide] | 7.4 | 6.8
COc1cn(C(CCOCC(F)F)C(=O)Nc2ccc(C(N)=O)c(F)c2)c(=O)cc1-c1cc(Cl)ccc1C#N (racemic) [Example 22, 4-({2-[4-(5-Chloro-2-cyanophenyl)-5-methoxy-2-oxopyridin-1(2H)-yl]-4-(2,2-difluoroethoxy)-butanoyl}amino)-2-fluorobenzamide] | 21 | 12
COCCC(C(=O)Nc1ccc(C(N)=O)c(F)c1)n1cc(OC)c(-c2cc(OC)ccc2C#N)cc1=O (racemic) [Example 23, 4-({2-[4-(2-Cyano-5-methoxyphenyl)-5-methoxy-2-oxopyridin-1(2H)-yl]-4-methoxybutanoyl}amino)-2-fluorobenzamide] | 170 | 310
COCCC(C(=O)Nc1ccc(C(N)=O)c(F)c1)n1cc(OC)c(-c2cc(Cl)c(F)cc2C#N)cc1=O (racemic) [Example 25, 4-({2-[4-(5-Chloro-2-cyano-4-fluorophenyl)-5-methoxy-2-oxopyridin-1(2H)-yl]-4-methoxy-butanoyl}amino)-2-fluorobenzamide] | 310 | 160
CCC(C(=O)Nc1ccc(C(=O)NC)cc1)n1cc(OC)c(-c2cc(Cl)ccc2C#N)cc1=O (racemic) [Example 26, 4-({2-[4-(5-chloro-2-cyanophenyl)-5-methoxy-2-oxopyridin-1(2H)-yl]butanoyl}amino)-N-methylbenzamide] | 20 | 20
CCC(C(=O)Nc1ccc(C(=O)NC)c(Cl)c1)n1cc(OC)c(-c2cc(Cl)ccc2C#N)cc1=O (racemic) [Example 27, 2-Chloro-4-({2-[4-(5-chloro-2-cyanophenyl)-5-methoxy-2-oxopyridin-1(2H)-yl]butanoyl}amino)-N-methylbenzamide] | 50 | 71
CNC(=O)c1ccc(NC(=O)C(Cc2ccccn2)n2cc(OC)c(-c3cc(Cl)ccc3C#N)cc2=O)cc1F (racemic) [Example 30, 4-({2-[4-(5-Chloro-2-cyanophenyl)-5-methoxy-2-oxopyridin-1(2H)-yl]-3-(pyridin-2-yl)propanoyl}amino)-2-fluoro-N-methylbenzamide] | 9.7 | 8.2
COCCC(C(=O)Nc1ccc(C(N)=O)c(F)c1)n1cc(OC)c(-c2cc(Cl)ccc2C#N)cc1=O (racemic) [Example 31, 4-({2-[4-(5-Chloro-2-cyanophenyl)-5-methoxy-2-oxopyridin-1(2H)-yl]-4-methoxybutanoyl}amino)-2-fluorobenzamide] |  | 9.7
COc1cn(C(Cc2cc(C)no2)C(=O)Nc2ccc(C(N)=O)c(F)c2)c(=O)cc1-c1cc(Cl)ccc1C#N (racemic) [Example 32, 4-({2-[4-(5-Chloro-2-cyanophenyl)-5-methoxy-2-oxopyridin-1(2H)-yl]-3-(3-methyl-1,2-oxazol-5-yl)propanoyl}amino)-2-fluorobenzamide] | 13 | 11
COc1cn(C(Cc2noc(C)n2)C(=O)Nc2ccc(C(N)=O)c(F)c2)c(=O)cc1-c1cc(Cl)ccc1C#N (racemic) [Example 33, 4-({2-[4-(5-Chloro-2-cyanophenyl)-5-methoxy-2-oxopyridin-1(2H)-yl]-3-(5-methyl-1,2,4-oxadiazol-3-yl)propanoyl}amino)-2-fluorobenzamide] | 15 | 10
COc1cn(C(Cc2ccccn2)C(=O)Nc2ccc(C(N)=O)c(F)c2)c(=O)cc1-c1cc(Cl)ccc1C(F)F (racemic) [Example 34, 4-{[2-{4-[5-Chloro-2-(difluoromethyl)phenyl]-5-methoxy-2-oxopyridin-1(2H)-yl}-3-(pyridin-2-yl)propanoyl}amino]-2-fluorobenzamide] | 42 | 53
COc1cn(C(Cc2nnc(C)o2)C(=O)Nc2ccc(C(N)=O)c(F)c2)c(=O)cc1-c1cc(Cl)ccc1C#N (racemic) [Example 35, 4-({2-[4-(5-Chloro-2-cyanophenyl)-5-methoxy-2-oxopyridin-1(2H)-yl]-3-(5-methyl-1,3,4-oxadiazol-2-yl)propanoyl}amino)-2-fluorobenzamide] | 12 | 7.3
COc1cn(C(Cc2ncco2)C(=O)Nc2ccc(C(N)=O)c(F)c2)c(=O)cc1-c1cc(Cl)ccc1C#N (racemic) [Example 36, 4-({2-[4-(5-Chloro-2-cyanophenyl)-5-methoxy-2-oxopyridin-1(2H)-yl]-3-(1,3-oxazol-2-yl)propanoyl}amino)-2-fluorobenzamide] | 13 | 11
COc1cn(C(Cc2cc(C)on2)C(=O)Nc2ccc(C(N)=O)c(F)c2)c(=O)cc1-c1cc(Cl)ccc1C#N (racemic) [Example 37, 4-({2-[4-(5-Chloro-2-cyanophenyl)-5-methoxy-2-oxopyridin-1(2H)-yl]-3-(5-methyl-1,2-oxazol-3-yl)propanoyl}amino)-2-fluorobenzamide] | 12 | 6.2
COc1cn(C(Cc2ccn(C)n2)C(=O)Nc2ccc(C(N)=O)c(F)c2)c(=O)cc1-c1cc(Cl)ccc1C#N (racemic) [Example 38, 4-({2-[4-(5-Chloro-2-cyanophenyl)-5-methoxy-2-oxopyridin-1(2H)-yl]-3-(1-methyl-1H-pyrazol-3-yl)propanoyl}amino)-2-fluorobenzamide] | 6.2 | 3.6
COc1cn(C(Cc2nnc(C3CC3)o2)C(=O)Nc2ccc(C(N)=O)c(F)c2)c(=O)cc1-c1cc(Cl)ccc1C#N (racemic) [Example 39, 4-({2-[4-(5-Chloro-2-cyanophenyl)-5-methoxy-2-oxopyridin-1(2H)-yl]-3-(5-cyclopropyl-1,3,4-oxadiazol-2-yl)propanoyl}amino)-2-fluorobenzamide] | 70 | 38
COc1cn(C(Cc2cnco2)C(=O)Nc2cc(F)c(C(N)=O)c(F)c2)c(=O)cc1-c1cc(Cl)ccc1C#N (racemic) [Example 40, 4-({2-[4-(5-Chloro-2-cyanophenyl)-5-methoxy-2-oxopyridin-1(2H)-yl]-3-(1,3-oxazol-5-yl)propanoyl}amino)-2,6-difluorobenzamide] | 34 | 27
COc1cn(C(Cc2coc(C)n2)C(=O)Nc2ccc(C(N)=O)c(F)c2)c(=O)cc1-c1cc(Cl)ccc1C#N (racemic) [Example 41, 4-({2-[4-(5-Chloro-2-cyanophenyl)-5-methoxy-2-oxopyridin-1(2H)-yl]-3-(2-methyl-1,3-oxazol-4-yl)-propanoyl}amino)-2-fluorobenzamide] | 28 | 21
COc1cn(C(CC2=NOCC2)C(=O)Nc2ccc(C(N)=O)c(F)c2)c(=O)cc1-c1cc(Cl)ccc1C#N (racemic) [Example 42, 4-({2-[4-(5-Chloro-2-cyanophenyl)-5-methoxy-2-oxopyridin-1(2H)-yl]-3-(4,5-dihydro-1,2-oxazol-3-yl)propanoyl}amino)-2-fluorobenzamide] | 51 | 38
